# In patent US20230059136A1, “THE COMPOUNDS AND COMPOSITIONS FOR TREATING CONDITIONS ASSOCIATED WITH NLRP ACTIVITY” (Novartis AG, priority 2018, published 2023):
# Like-named read-outs stand apart in the source and are kept apart here.
# Tested on: IL-1β production in PMA-differentiated THP-1 cells
# Assay: IL-1β production in PMA-differentiated THP-1 cells stimulated with gramicidin (hTHP-1 assay containing 2% fetal bovine serum)
# Assay type: cell-based, human
# Conditions: 2% fetal bovine serum, read-out: hTHP-1 IC50 (Average IC50 of compounds in hTHP-1 assay)
# Outline: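 THP-1 cells were differentiated with PMA 20 ng/ml for 16-18 h, then plated at 50,000 cells/well in RPMI with 2% FBS. They were preincubated 1 h with compound (100–0.0017 μM final, 0.37% DMSO), then stimulated with gramicidin 5 μM for 2 h. Supernatant IL-1β was measured by HTRF.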
# [1] = Homo sapiens, THP-1, Table B2, class symbols
# [2] = Homo sapiens, THP-1, Table B1, class symbols
# [3] = Homo sapiens, THP-1, Table B1, cells printed as numeric bound
compound,measurement,setting,value
"CC(C)c1nc(C(F)(F)F)nc(C(C)C)c1CC(=O)N=S(N)(=O)c1cnc(C(C)(C)O)s1 (single isomer, unassigned) [Example 396, (S) or (R)-N-(amino(2-(2-hydroxypropan-2-yl)thiazol-5-yl)(oxo)-λ^6-sulfaneylidene)-2-(4,6-diisopropyl-2-(trifluoromethyl)pyrimidin-5-yl)acetamide]",IC50,[1],1 to 5 µM
"CC(C)c1cc(-c2ccc3ccccc3c2)cc(C(C)C)c1CC(=O)N=[S@@](=O)(NC#N)c1cnc(C(C)(C)O)s1 [Example 346, (R)-N-(cyanamido(2-(2-hydroxypropan-2-yl)thiazol-5-yl)(oxo)-λ^6-sulfaneylidene)-2-(2,6-diisopropyl-4-(naphthalen-2-yl)phenyl)acetamide]",IC50,[2],0.2 to 1 µM
"CC(C)c1ccc(F)c(C(C)C)c1CC(=O)N=S(N)(=O)c1cnc(C(C)(C)O)s1 (single isomer, unassigned) [Example 161, (R) or (S)-N-(amino(2-(2-hydroxypropan-2-yl)thiazol-5-yl)(oxo)-λ^6-sulfaneylidene)-2-(3-fluoro-2,6-diisopropylphenyl) acetamide]",IC50,"Table B1, class symbols",0.04 to 0.2 µM
"CC(C)c1c(F)c(C#N)cc(C2CC2)c1CC(=O)N=S(N)(=O)c1sc(C(C)(C)O)cc1F (single isomer, unassigned) [Example 54, (S)- or (R)-2-(4-cyano-6-cyclopropyl-3-fluoro-2-isopropylphenyl)-N-(3-fluoro-5-(2-hydroxypropan-2-yl)thiophen-2-ylsulfonimidoyl)acetamide]",IC50,"Table B1, class symbols",0.008 to 0.04 µM
"CC(C)(O)c1ncc(S(N)(=O)=NC(=O)Cc2cc3c(c4c2CCC4)CCC3)s1 (single isomer, unassigned) [Example 314, (S) or (R)-N-(amino(2-(2-hydroxypropan-2-yl)thiazol-5-yl)(oxo)-λ^6-sulfaneylidene)-2-(1,2,3,6,7,8-hexahydro-as-indacen-4-yl)acetamide]",IC50,[3],> 30 µM
"CC(C)c1cc2c(c(C(C)C)c1CC(=O)N=S(N)(=O)c1cnn3c1OCCC3)COC2 (single isomer, unassigned) [Example 309, (S) or (R)-N-(amino (6,7-dihydro-5H-pyrazolo[5,1-b][1,3]oxazin-3-yl)(oxo)-λ^6-sulfaneylidene)-2-(4,6-diisopropyl-1,3-dihydroisobenzofuran-5-yl)acetamide]",IC50,[3],> 30 µM
"CC(C)c1cc(F)cc(C(C)C)c1C(C)C(=O)N=S(N)(=O)c1cnc(C(C)(C)O)s1 (centres unmarked) [Example 96, N-(amino(2-(2-hydroxypropan-2-yl)thiazol-5-yl)(oxo)-λ^6-sulfaneylidene)-2-(4-fluoro-2,6-diisopropylphenyl)propanamide]",IC50,[3],> 30 µM
"CC(C)(O)c1ncc(S(N)(=O)=NC(=O)Cc2c(C3CC3)cc(F)cc2C(F)(F)F)s1 (single isomer, unassigned) [Example 196, (R) or (S)-N-(amino (2-(2-hydroxypropan-2-yl)thiazol-5-yl)(oxo)-λ^6-sulfaneylidene)-2-(2-cyclopropyl-4-fluoro-6-(trifluoromethyl)phenyl) acetamide]",IC50,[2],5 to 30 µM
"CC(C)(O)c1ncc(S(N)(=O)=NC(=O)Cc2cc3c(c4c2CCC4)CCC3)s1 (centres unmarked) [Example 242, N-(amino(2-(2-hydroxypropan-2-yl)thiazol-5-yl)(oxo)-λ^6-sulfaneylidene)-2-(1,2,3,6,7,8-hexahydro-as-indacen-4-yl)acetamide]",IC50,[3],> 30 µM
"COCc1cc(C(C)C)c(CC(=O)N=S(N)(=O)c2ncc(C(C)(C)O)s2)c(C(C)C)n1 (single isomer, unassigned) [Example 273, (S) or (R)-N-(amino (5-(2-hydroxypropan-2-yl)thiazol-2-yl)(oxo)-λ^6-sulfaneylidene)-2-(2,4-diisopropyl-6-(methoxymethyl)pyridin-3-yl)acetamide]",IC50,[3],> 30 µM
"CCc1cc2c(c(C(C)C)c1CC(=O)N=S(N)(=O)c1cnc(C(C)(C)O)s1)COC2 (centres unmarked) [Example 260, N-(amino(2-(2-hydroxypropan-2-yl)thiazol-5-yl)(oxo)-λ^6-sulfaneylidene)-2-(6-ethyl-4-isopropyl-1,3-dihydroisobenzofuran-5-yl)acetamide]",IC50,[2],5 to 30 µM
"CC(C)c1cc(C#N)cc(C(C)C)c1CC(=O)N=S(N)(=O)c1sc(C(C)(C)O)nc1CCO (single isomer, unassigned) [Example 384, (S) or (R)-N-(amino(4-(2-hydroxyethyl)-2-(2-hydroxypropan-2-yl)thiazol-5-yl)(oxo)-λ^6-sulfaneylidene)-2-(4-cyano-2,6-diisopropylphenyl)acetamide]",IC50,"Table B2, class symbols",5 to 30 µM
"Cc1nc(C(C)(C)O)sc1S(N)(=O)=NC(=O)Cc1c(C(C)C)cc(C#N)cc1C(C)C (single isomer, unassigned) [Example 61, (R)- or (S)-2-(4-cyano-2,6-diisopropylphenyl)-N-(2-(2-hydroxypropan-2-yl)-4-methylthiazole-5-sulfonimidoyl)acetamide]",IC50,"Table B1, class symbols",5 to 30 µM
"CC(C)c1cc2c(c(C(C)C)c1CC(=O)N=S(N)(=O)c1cccc(C(C)(C)O)c1)COC2 (single isomer, unassigned) [Example 304, (S) or (R)-N-(amino(3-(2-hydroxypropan-2-yl)phenyl)(oxo)-λ^6-sulfaneylidene)-2-(4,6-diisopropyl-1,3-dihydroisobenzofuran-5-yl)acetamide]",IC50,[3],> 30 µM
"CC(C)c1cc2c(c(C(C)C)c1CC(=O)N=S(N)(=O)c1cccc(C(C)(C)O)c1)COC2 (single isomer, unassigned) [Example 303, (R) or (S)-N-(amino(3-(2-hydroxypropan-2-yl)phenyl)(oxo)-λ^6-sulfaneylidene)-2-(4,6-diisopropyl-1,3-dihydroisobenzofuran-5-yl)acetamide]",IC50,[2],1 to 5 µM
"CC(C)c1cc(C#N)c(F)c(C(C)C)c1CC(=O)N=S(N)(=O)c1sc(C(C)(C)O)nc1CO (racemic) [Example 352, (S) and (R)—N-(amino(4-(hydroxymethyl)-2-(2-hydroxypropan-2-yl)thiazol-5-yl)(oxo)-λ^6-sulfaneylidene)-2-(4-cyano-3-fluoro-2,6-diisopropylphenyl)acetamide]",IC50,"Table B2, class symbols",0.2 to 1 µM
"CC(C)c1cc(F)cc(C(C)C)c1CC(=O)N=S(N)(=O)c1ncc(C(C)(C)O)s1 (centres unmarked) [Example 7, 2-(4-Fluoro-2,6-diisopropylphenyl)-N-(5-(2-hydroxypropan-2-yl)thiazole-2-sulfonimidoyl)acetamide]",IC50,[2],0.2 to 1 µM
"CCc1c2c(cc(C(C)C)c1CC(=O)N=S(N)(=O)c1sc(C(C)(C)O)cc1F)COC2 (centres unmarked) [Example 264, N-(amino(3-fluoro-5-(2-hydroxypropan-2-yl)thiophen-2-yl)(oxo)-λ^6-sulfaneylidene)-2-(4-ethyl-6-isopropyl-1,3-dihydroisobenzofuran-5-yl)acetamide]",IC50,[2],0.2 to 1 µM
"CC(C)c1c(F)c(C#N)cc(C2CC2)c1CC(=O)N=S(N)(=O)c1sc(C(C)(C)O)cc1F (centres unmarked) [Example 19, 2-(4-cyano-6-cyclopropyl-3-fluoro-2-isopropylphenyl)-N-(3-fluoro-5-(2-hydroxypropan-2-yl)thiophen-2-ylsulfonimidoyl)acetamide]",IC50,"Table B1, class symbols",0.008 to 0.04 µM
"CC(C)c1cc(C(F)F)cc(C(C)C)c1CC(=O)N=S(N)(=O)c1sc(C(C)(C)O)cc1F (single isomer, unassigned) [Example 80, (S)- or (R)-2-(4-(difIuoromethyl)-2,6-diisopropylphenyl)-N-(3-fluoro-5-(2-hydroxypropan-2-yl)thiophen-2-ylsulfonimidoyl)acetamide]",IC50,"Table B1, class symbols",0.008 to 0.04 µM
"CC(C)c1cc2c(c(C(C)C)c1CC(=O)N=S(N)(=O)c1ccn(CCO)n1)OC(F)(F)O2 (racemic) [Example 349, (R) and (S)—N-(amino(1-(2-hydroxyethyl)-1H-pyrazol-3-yl)(oxo)-λ^6-sulfaneylidene)-2-(2,2-difluoro-4,6-diisopropylbenzo[d][1,3]dioxol-5-yl)acetamide]",IC50,"Table B2, class symbols",5 to 30 µM
"CC(C)c1cc(C#N)c(F)c(C(C)C)c1CC(=O)N=[S@](=O)(NC#N)c1cnc([C@](C)(O)CO)s1 (single isomer, unassigned) [Example 371]",IC50,[1],5 to 30 µM
"CC(C)c1cc2c(c(C(C)C)c1CC(=O)N=S(N)(=O)c1cc(C(C)(C)O)cs1)COC2 (single isomer, unassigned) [Example 216, (R) or (S)-N-(amino (4-(2-hydroxypropan-2-yl)thiophen-2-yl)(oxo)-λ^6-sulfaneylidene)-2-(4,6-diisopropyl-1,3-dihydroiso-benzofuran-5-yl)acetamide]",IC50,"Table B1, class symbols",0.2 to 1 µM
"CC(C)c1cc(C#N)cc(C2CC2)c1CC(=O)N=S(N)(=O)c1sc(C(C)(C)O)nc1CO (single isomer, unassigned) [Example 71, (R)- or (S)-2-(4-cyano-2-cyclopropyl-6-isopropylphenyl)-N-(4-(hydroxymethyi)-2-(2-hydroxypropan-2-yl)thiazol-5-ylsulfonimidoyl)acetamide]",IC50,"Table B1, class symbols",5 to 30 µM
"CC(C)c1cc(OC(F)F)cc(C(C)C)c1CC(=O)N=S(N)(=O)c1sc(C(C)(C)O)cc1F (centres unmarked) [Example 21, 2-(4-(difluoromethoxy)-2,6-diisopropylphenyl)-N-(3-fluoro-5-(2-hydroxypropan-2-yl)thiophen-2-ylsulfonimidoyl)acctamide]",IC50,"Table B1, class symbols",0.04 to 0.2 µM
"Cc1ccc(-c2cc(C(C)C)c(CC(=O)N=S(N)(=O)c3ncc(C(C)(C)O)s3)c(C(C)C)c2)cc1C (single isomer, unassigned) [Example 167, (S) or (R)-N-(amino(5-(2-hydroxypropan-2-yl)thiazol-2-yl)(oxo)-λ^6-sulfaneylidene)-2-(3,5-diisopropyl-3′,4′-dimethyl-[1,1′-biphenyl]-4-yl)acetamide]",IC50,"Table B1, class symbols",1 to 5 µM
